In patent US8796231B2, “Pest control composition” (Sumitomo Chemical Company, Limited, priority 2010, dated 2014):

Legend:
Spodoptera litura = assay: Test Example 1: cabbage leaf immersion test, insecticidal rate on third-instar larvae; format: in vivo; conditions: cabbage leaf immersed 60 seconds, after 4 days, 3 replicates
Description: (§1) A suspension concentrate containing 10.0% by weight of etoxazole [product name: Baroque (registered trademark) flowable, manufactured by Kyoyu Agri Co., Ltd.] was diluted with water containing 0.02% by volume of a spreading agent [product name: Sindain (registered trademark), manufactured by Sumitomo Chemical Co., Ltd.] so that the concentration of etoxazole became 25 ppm.
(§2) A suspension concentrate containing 11.7% by weight of spinetoram (weight ratio of spinetoram J:spinetoram L=75:25) was diluted with water containing 0.02% by volume of a spreading agent [product name: Sindain (registered trademark), manufactured by Sumitomo Chemical Co., Ltd.] so that the concentration of spinetoram became 7.31 ppm.
(§3) The water dilution of spinetoram was mixed with an equal amount of the water dilution of etoxazole to prepare a test solution.
The water dilution of etoxazole and the water dilution of spinetoram were respectively diluted with an equal amount of water containing 0.02% by volume of the same spreading agent as mentioned above to prepare a 12.5 ppm water dilution of etoxazole and a 3.66 ppm water dilution of spinetoram.
A cabbage was planted in a pot (volume: 860 ml) and grown until the fourth leaf stage. The leaves of the cabbage were cut off one by one. […]
An insect death rate was calculated according to the following equation. […]

Panonychus citri = assay: Test Example 2: Satsuma mandarin orange leaf piece immersion test, insecticidal rate on female imagoes; format: in vivo; conditions: mandarin orange leaf piece immersed 60 seconds, after 6 days, 3 replicates
Description: as §1, with “1.56” for “25”
as §2, with “6.25” for “7.31”
as §3
The water dilution of etoxazole and the water dilution of spinetoram were respectively diluted with an equal amount of water containing 0.02% by volume of the same spreading agent as mentioned above to prepare a 0.78 ppm water dilution of etoxazole and a 3.13 ppm water dilution of spinetoram.
Leaves were taken from a cultivated Satsuma mandarin orange tree, and cut into 2-cm-square pieces. One of the pieces was immersed in the test solution for 60 seconds. […]
An insecticidal rate was calculated in the same manner as Test Example 1. […]

How did the Insecticidal rate (Spodoptera litura; 3.66 ppm active ingredient) turn out when spinetoram was run?
Its Insecticidal rate is 43.3%.

And the Insecticidal rate (Panonychus citri; 3.13 ppm active ingredient)?
Its Insecticidal rate is 23.1%.

With `CCOc1cc(C(C)(C)C)ccc1C1COC(c2c(F)cccc2F)=N1` (stereo not shown) [Etoxazole, 2-(2,6-difluorophenyl)-4-[4-(1,1-dimethylethyl)-2-ethoxyphenyl]-4,5-dihydrooxazole] as the compound, how does the Insecticidal rate (Spodoptera litura; 12.5 ppm active ingredient) read?
Its Insecticidal rate is 26.7%.

What about the Insecticidal rate (Panonychus citri; 0.78 ppm active ingredient) of the same compound?
Its Insecticidal rate is 7.7%.
